“Also recorded” adds a separate entry of the source.
Columns and labels:
[1] = system: HIV-1 p24 antigen, H9 cells; test: p24 antigen levels (ELISA) in chronically HIV-1 infected H9 cells; format: cell-based; details: 48 hours, FIGS. 8 and 9
Experimental: (§1) 1. Dose-dependency of antiviral effect. Cells of the human T lymphocyte line H9, chronically and productively infected with the Lai (IIIb) strain of HIV-1, were harvested during logarithmic proliferation, extensively washed to remove viral antigens and infectious particles, and re-suspendedin serum-supplemented and antibiotic-containing RPMI 1640 medium at a density of 2×10^5 cells/ml. After incubation with increasing concentrations of mimosine or HK-1 for 48 hours, the cells were harvested, lysed, and used to determine the intracellular amount of the p24 antigen derived from the p55 Gag polyprotein, using a commercially available, p24-specific ELISA method (Coulter, Hialeah, Fla.); the same method was also used to quantify the extracellular level of p24 antigen that had accumulated in the supernatant during incubation with the hypusine inhibitors. In addition, titration assays were performed using CEM target cells to measure the infectivity of virus produced in the absence and presence of the hypusine inhibitors using the procedure of Prince et al., Proc. Natl. Acad. Sci. USA 85, 6944-6948 (1988), which is hereby incorporated by reference. The half-maximal tissue culture infectious doses (TCID50) of HIV-1 per ml of test sample were calculated by the Spearman-Karber method.

HIV-1 = test: Titration assay of infectivity of virus (TCID50) produced by infected H9 cells, CEM target cells; format: cell-based; details: 48 hours, increasing concentrations
Experimental: as §1

Deoxyhypusyl hydroxylase = molecular target: T1, Deoxyhypusyl hydroxylase (Homo sapiens, UniProt Q9BU89); test: Cellular deoxyhypusyl hydroxylase (hypusine formation) inhibition, human B-cells and human smooth muscle cells; format: cell-based; details: for Deoxyhypusyl hydroxylase ID50 (cellular): concentration for half-maximal inhibition
T1 construct: endogenous in cells
T1 sequence (Q9BU89 1-302): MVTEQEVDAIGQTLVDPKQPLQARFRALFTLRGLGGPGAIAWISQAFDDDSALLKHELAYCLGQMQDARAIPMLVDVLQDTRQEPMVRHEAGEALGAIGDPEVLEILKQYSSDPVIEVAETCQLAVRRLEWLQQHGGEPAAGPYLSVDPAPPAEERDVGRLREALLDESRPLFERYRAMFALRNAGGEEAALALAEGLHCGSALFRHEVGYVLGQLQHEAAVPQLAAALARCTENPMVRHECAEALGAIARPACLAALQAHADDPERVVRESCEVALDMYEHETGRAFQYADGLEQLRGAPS
Experimental: The cell-free enzyme assay was performed to test a pilot peptidomimetic which can be equipped with hydroxypyridone warheads. The cell culture studies were performed to establish the inherent inhibitory potency of such hydroxypyridones.
DOHH Assay. The intracellular conversion of peptide-bound deoxyhypusine to peptidyl hypusine was determined after preincubation of human T lymphocyte-derived cells (i.e. ACH-2) [Clouse et al., J. Immunol. 142, 431-438 (1989), which is hereby incorporated by reference] with the hypusine inhibitors mimosine and HK-1 for 60 minutes, followed by labeling for 21 hours with ^3 H-spermidine (3.75 μCi/ml) in wells containing 3×10^6 cells suspended in 8 ml of serum-supplemented and antibiotic-containing RPMI 1640 medium. Cells were then split into two groups, one of them being harvested immediately to assess degree of DOHH inhibition, and the other harvested after transfer of the cells into inhibitor-free medium for 2 hours to measure resumption of DOHH activity. Harvesting consisted in precipitation of washed cells with 10% TCA containing 1 mM each of putrescine, spermidine, and spermine. Cellular proteins from each sample were then hydrolyzed in 6N HCl at 110° C. for 16 hours. The hydrolysate was analyzed for labeled amino acids on an amino acid analyzer by published methods [Park et al., J. Biol. Chem., 257, 7217-7222 (1982), which is hereby incorporated by reference]. The retention times of hypusine and deoxyhypusine were determined from standards. Similar studies were performed in human B-cells and human smooth muscle cells.
The concentration required for half-maximal inhibition (ID50) of the cellular enzyme activity is identified for each compound.

[2] = system: HIV-1 producing ACH-2 cells; test: Electron microscopy of PMA-induced ACH-2 cells; format: cell-based, human
Experimental: FIGS. 11A and B show, representative ultrastructural findings observed in PMA-induced/untreated (FIG. 11A) and PMA-induced/mimosine-treated (FIG. 11B) ACH-2 cells immediately at the end of the 18-hour incubation period. […] Note, however, that such changes occur rapidly after withdrawal of the inhibitors (compare to time course detailed in FIGS. 12A and B and FIGS. 14A-H). [Magnification: 9100×].
3. Ultrastructural investigation of antiviral effect. ACH-2 cells were incubated with hypusine inhibitors (mimosine, HK-1) and induced with PMA as outlined in Example II A. Harvesting, fixation of cells, and electron microscopy were performed according to established techniques [Michael et al., J. Virol 65, 1291-1303 (1991), which is hereby incorporated by reference].

## Cc1c(O)c(=O)ccn1C [HK-1, 1,2-dimethyl-3-hydroxypyrid-4-one]
[1]
  intra- and extracellular p24 antigen levels: inhibitory effect on the extracellular (FIG. 9A) and intracellular (FIG. 9B) levels of the p24 antigen
HIV-1
  production of infectious HIV-1 particles / infectivity of virus: dose-dependently suppressive effect
Deoxyhypusyl hydroxylase
  Deoxyhypusyl hydroxylase ID50 (cellular): 90

## N[C@@H](Cn1ccc(=O)c(O)c1)C(=O)O [L-Mimosine]
[1]
  intra- and extracellular p24 antigen levels: inhibitory effect on the intracellular (FIG. 8A) and extracellular (FIG. 8B) levels of the p24 antigen
HIV-1
  production of infectious HIV-1 particles / infectivity of virus: dose-dependently suppressive effect
[2]; PMA-induced ACH-2, FIG. 11B
  cells with early apoptotic nuclear changes: about 20%
[2]; PMA-induced ACH-2, end of 18-hour incubation, FIG. 11B
  number of viral particles in extracellular space: marked reduction in the number of viral particles; also recorded: prominent reduction in the number of infectious particles in the extracellular space
[2]; PMA-induced ACH-2, end of incubation, FIG. 11B
  ultrastructural appearance of treated cells: normal ultrastructural appearance of the treated ACH-2 cells; also recorded: still lacks overt morphological signs of cell damage
Deoxyhypusyl hydroxylase
  inhibition of deoxyhypusyl hydroxylase activity, i.e. hypusine formation: efficiently inhibit deoxyhypusyl hydroxylase activity
  Deoxyhypusyl hydroxylase ID50 (cellular): 65

— patent publication US5849587A, “Method of inhibiting viral replication in eukaryotic cells and of inducing apoptosis of virally-infected cells” (Cornell Research Foundation, Inc., priority 1995, dated 1998)
